Data set [1] in a line: Multiple ascending dose (MAD) study, pharmacokinetics in human subjects. Type of data set: in vivo. The method, then:
The mean AUC0-tau ss (% CV) (135 μg·h/mL (20)) and Cmaxss (% CV) (9488 ng/ml (17)) was determined at the steady state day 8 in case 135 mgs. The mean AUC0-tau ss (% CV) (299 μg·h/mL (21) and Cmaxss(% CV) (17200 ng/ml (18) was determined at the steady state day 8 in case 270 mgrs.
Across all ascending dose studies in humans the increase in dose is linearly related to the increase in AUC. Because of the inter subject variability in clearance it is required to select a start dose which is not excessively above the 200 μg·h/mL target AUCs.
The PK data from the MAD study was used to generate a start dose which is most likely no cause toxicity or adverse events in subjects. A dose of 150 mg was chosen as it would give a geometric mean AUCtau of 167 μg·h/mL SD 33 with a 95% confidence interval of 102-232 μg·h/mL. At this dose approximated 75% of patients will be below 200 μg·h/mL and it is unlikely that any patient will exceed 240 μg·h/mL.

The target in data set [2] is T1, mitochondrial pyruvate carrier (MPC) (Homo sapiens, UniProt O95563+Q9Y5U8).
T1 construct: expressed in transfected cells
T1 sequence (O95563 1-127): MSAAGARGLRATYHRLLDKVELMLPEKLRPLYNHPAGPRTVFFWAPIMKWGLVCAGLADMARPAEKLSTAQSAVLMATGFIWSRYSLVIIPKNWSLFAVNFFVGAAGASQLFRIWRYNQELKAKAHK
T1 sequence (Q9Y5U8 1-109): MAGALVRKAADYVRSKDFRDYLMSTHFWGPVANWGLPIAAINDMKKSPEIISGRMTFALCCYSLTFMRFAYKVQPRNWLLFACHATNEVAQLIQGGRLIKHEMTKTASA
The experiment in a line: BRET assay of MPC inhibitory activity in HEK cells expressing MPC2-Rluc8 and MPC1-Venus. Type of data set: cell-based. The method, then: The MPC is a heterodimer composed of two subunits, MPC1 and MPC2. MPC1 and MPC2 interact to form an active carrier. In the assay, MPC2 was fused to Rluc8 (Donor) and MPC1 to Venus (Acceptor). These chimeric proteins were stably expressed in HEK cells. BRET activity was measured following addition of coelenterazine in the culture medium. Coelenterazine enters into cells and in contact with luciferase Rluc8 emits light, which activates the emission of fluorescence by the Acceptor, provided the distance between the Donor and Acceptor is <[…]. If the distance between Donor and Acceptor is >[…], no BRET activity is measured. The level of BRET activity reflects a change in the conformation of the MPC: it is high when the carrier is in a closed conformation, low when the carrier is at rest and intermediary when it transports pyruvate. In this case, the BRET activity is the mean value between the BRET value when the carrier is at rest (Maximal distance between Donor and Acceptor) and the BRET value when it is closed (Shortest distance between Donor and Acceptor)
A wide range of concentrations of each of the tested compounds was used from 1 nM to 100 μM.

The test system of a further data set is HeLa cells. The experiment in a line: Seahorse oxygen consumption rate (OCR) in HeLa cells. It counts as cell-based. Conditions: Homo sapiens, 1 h incubation at 37° C. The method, then: (§1) To determine whether Compound (1) HCl has any effect on pyruvate-mediated mitochondrial respiration, the extracellular flux analyzer Seahorse was used as described in Compan et al. Seahorse experiments were performed in the following cell lines: HeLa (Cervix cancer cells), A549 (lung cancer cells), wild type MDA MB 231, and MDA MB 231 in which MPC2 has been deleted, leading to inactivation of the MPC (MDA MB231 KO). MDA MB231 cells are epithelial breast cancer cells. Cells were incubated with increasing concentrations of the compounds for one hour at 37° C. before oxygen consumption rate (OCR) measurements. The Seahorse analyzer allowed to measure basal and maximal respiration measured upon depolarization with 1 μM CCCP. Effects of Compound (1) HCl on oxygen consumption rates (OCR) in HeLa cells (FIG. 3A) and A549 cells (FIG. 3B) in a representative experiment of n=3. OCR values are expressed as ratios of OCR in the presence of different concentrations of compounds over the OCR in PBS alone.

The subject of another data set is A549 cells. Nature of the data set: Seahorse oxygen consumption rate (OCR) in A549 cells. Conditions: Homo sapiens, 1 h incubation at 37° C. It counts as cell-based. The method, then:
as §1

Data set [3] deals with wild type MDA MB231 cells. Nature of the data set: Seahorse oxygen consumption rate (OCR) in wild type MDA MB231 cells. It counts as cell-based. The method, then: as §1, with “CCCP. […] The KO cells have been deleted” for “CCCP. Effects”, “of the MPC2 gene” for “of Compound (1) HCl on oxygen consumption rates (OCR) in HeLa cells (FIG. 3A)”, “and therefore they display no MPC activity. The top panel show” for “and A549 cells (FIG. 3B) in”, “of either wild type (WT) or KO cell lines. […]” for “of n=3.”, “of the tested compound” for “of compounds”

The test system of the next data set is MDA MB231 KO cells. The experiment in a line: Seahorse oxygen consumption rate (OCR) in MDA MB231 KO cells (MPC2 deleted). It counts as cell-based. Particulars: MPC activity genetically deleted. The method, then:
as §1, with “CCCP. […] The KO cells have been deleted” for “CCCP. Effects”, “of the MPC2 gene” for “of Compound (1) HCl on oxygen consumption rates (OCR) in HeLa cells (FIG. 3A)”, “and therefore they display no MPC activity. The top panel show” for “and A549 cells (FIG. 3B) in”, “of either wild type (WT) or KO cell lines. […]” for “of n=3.”, “of the tested compound” for “of compounds”

The next data set concerns adiponectin. Nature of the data set: Plasma adiponectin by ELISA in Sprague Dawley rats as a measure of PPAR gamma engagement. Type of data set: in vivo, rat. Particulars: 7 days, 54 mg/Kg/day, plasma 1 h after last administration, vs vehicle p<0.0001. The method, then:
Evaluation of effect of Compound (1) HCl on adiponectin was performed in Sprague Dawley wild type rats as a measure of PPAR gamma engagement. The rats were treated for 7 days with increasing doses of Compound (1) HCl at 54 mg/Kg/day. Plasma were obtained at 1 h after the last Compound (1) HCl administration. Adiponectin levels were measured by ELISA. Results were represented as mean+standard error of the mean of n=8. Data were analyzed by Kruskal-Wallis followed by the Dunn post-hoc test versus the vehicle group (****, p<0.0001).

For data set [4], the system named is MCD diet fed C57BL6/J mice. Nature of the data set: 7-week Methionine Choline Deficient (MCD) diet NASH mouse model. It counts as in vivo. The method, then: The preventive effects of Compound (1) HCl was evaluated in a 7-week Methionine Choline Deficient (MCD) diet NASH mouse model (Verdelho Machado et al.). After the acclimation period, C57BL6/J male mice (n=20) were weighed and randomized into 2 homogenous treatment groups based on body weight (n=10/group), put on a MCD diet, and treated BID orally with vehicle or Compound (1) HCl for 7 weeks. Compound (1) HCl was dosed 62.5 mg/kg BID orally by gavage. […] Body weight was measured 3 times/week until the end of the experimental phase. At 7 weeks of diet/treatment, mice were weighed and treated at ˜08:00 am in the morning, then bled (maximal volume/EDTA) at […]. Plasma was then immediately isolated and stored at −80° C. prior to assay plasma ALT and AST. The plasma volume left over was stored at −80° C. for eventual additional analysis. After blood collection, the mice were sacrificed by cervical dislocation under isoflurane anesthesia and exsanguinated with sterile saline. A NAFLD scoring system (NAS) adapted from Kleiner et al. (Hepatology. 41(6):1313-1321 (2005)) using the criteria described in the Table 2 below: Several other histopathological observations described in clinical human cases and originally reported in the NAS scoring system published by Kleiner et al. were not observed in this animal study, such as lipogranuloma, acidophil bodies, megamitochondria, and pigmented macrophages. Therefore, it was elected not to include them in the scoring system described above. An individual mouse NAS total score was calculated for each animal by summing up the score for (1) hepatocellular steatosis, (2) liver inflammation, (3) lobular fibrosis, and (4) hepatocyte ballooning. Histology analysis was performed (oil red 0, H&E and Sirius Red staining) for NAFLD scoring system (NAS) for liver steatosis, inflammation, fibrosis and hepatocyte ballooning.

Read-outs that look alike come from different tables or passages of the source.

For the molecule `CC(O)c1ccc(CCOc2ccc(CC3SC(=O)NC3=O)cc2)nc1` (stereo not drawn) [Compound (1), 5-[[4-[2-[5-(1-hydroxyethyl)pyridin-2-yl]ethoxy]phenyl]methyl]-1,3-thiazolidine-2,4-dione], in data set [1] (humans), the linearity of pharmacokinetics result is “linear pharmacokinetics” and the oral bioavailability result is reported as “orally bioavailable”.
The molecule `CN(CCOc1ccc(CC2SC(=O)NC2=O)cc1)c1ccccn1` (stereo not drawn) [Rosiglitazone, rosiglitazone, reference compound] gave an IC50 in data set [2] of 2 µM.
Turning to `CC(O)c1ccc(CCOc2ccc(CC3SC(=O)NC3=O)cc2)nc1.Cl` (stereo not drawn) [Compound (1) HCl, 5-[[4-[2-[5-(1-hydroxyethyl)pyridin-2-yl]ethoxy]phenyl]methyl]-1,3-thiazolidine-2,4-dione hydrochloride], the “change in clearance with time” value in data set [1] (human subjects, 135 mg and 270 mg) is on record as “no change in clearance with time”. Moreover, the “mean Cmaxss” value in data set [1] (human subjects, 135 mg, steady state day 8) was found to be 9488 ng/mL; in data set [1] (human subjects, 270 mg, steady state day 8), 17200 ng/mL. For the same molecule, the AUC was 167 µg·h/mL in data set [1] (human, plasma, oral, start dose 150 mg, generated from MAD PK data, SD 33, 95% CI 102-232, read-out: geometric mean AUCtau); 135 µg·h/mL in data set [1] (in vivo, human subjects, 135 mg, steady state day 8, read-out: mean AUC0-tau ss); 299 µg·h/mL in data set [1] (in vivo, human subjects, 270 mg, steady state day 8, read-out: mean AUC0-tau ss). Also, the “Cmin ss associated with the target AUC0-tau ss” value in data set [1] (line of best fit of day 8 MAD data, target AUC0-tau ss 200 μg·h/mL) was determined as 5716 ng/mL. Further, the IC50 in data set [2] (BRET assay, HEK cells, read-out: IC50 MPC inhibitory activity) was 4.1 µM; in the data set with HeLa cells, approximately 5 µM; in the data set on A549 cells it was approximately 5 µM. In addition, the “effect on oxygen consumption” value in data set [3] is listed as “inhibits oxygen consumption in a MPC dependent manner”; in the data set on MDA MB231 KO cells, “does not inhibit oxygen consumption”. Also, the plasma adiponectin levels entry in the data set on adiponectin is given as “significantly increased”. For the same molecule, the hepatic cholesterol levels result in data set [4] (62.5 mg/kg BID orally, 7 weeks) was “did not show a change”. Also, the body weight loss result in data set [4] (62.5 mg/kg BID orally, day 14 to day 50) was “less severe decline in body weight loss”. In addition, the liver inflammation result in data set [4] (7 weeks) is “total disappearance of inflammation”. For the same molecule, the “oil red o staining %” value in data set [4] (7 weeks, vs vehicle p<0.001) is recorded as “extremely low”. For the same molecule, in data set [4] (7 weeks, vs vehicle p<0.001), the steatosis score result is “blunted steatosis score”.

The IC50 is the concentration at which inhibition is half-maximal.

(Values after patent publication US20210308113A1, “METHOD OF ADMINISTERING A […] EFFECTIVE AMOUNT OF 5-[[4-[2-[5-(1-HYDROXYETHYL)PYRIDIN-2-YL]ETHOXY]PHENYL]METHYL]-1,3-THIAZOLIDINE-2,4-DIONE” (MINORYX THERAPEUTICS S.L., priority 2018, published 2021).)
